Measured values as given in the RepoRT retention time repository.

Experiment: HILIC, Waters ACQUITY UPLC BEH Amide, 100 × 2.1 mm, 1.7 µm; A: water + 0.125% formic acid + 10 mM ammonium formate; B: 5% water + 95% acetonitrile + 0.125% formic acid + 10 mM ammonium formate; gradient (min/%B) 0/100 2/100 7.7/70 9.5/40 10.25/30 12.75/100 17/100
Settings: stereoisomer not certain

SMILES | LC retention time [min]
Cc1cccc(C)c1NC(=O)C(C)N (stereo unspecified) [Tocainide] | 4.97
NCCCNCCCCNCCCN [Spermine] | 7.24
NC(CCC(=O)NC(CSSCC(NC(=O)CCC(N)C(=O)O)C(=O)NCC(=O)O)C(=O)NCC(=O)O)C(=O)O (stereo unspecified) [Glutathione (oxidized)] | 10.2
CNC[C@H](N)C(=O)O [beta-N-Methylaminoalanine] | 9.32
NC(CC(=O)O)c1ccc(O)cc1 (stereo unspecified) [3-Amino-3-(4-hydroxyphenyl)propionic acid] | 7.42
O=C(O)C=Cc1cnc[nH]1 [Urocanic acid] | 3.69
CSCCC(NC(=O)CCC(N)C(=O)O)C(=O)O (stereo unspecified) [gamma-Glutamylmethionine] | 8.55
CC(=O)Nc1ccc(CC(=O)O)cc1 [Actrarit] | 1.58
COc1ccc(-c2cc(=O)c3c(OC)c(OC)c(OC)c(OC)c3o2)cc1OC [Nobiletin] | 1
CC(C)=CCNc1ncnc2nc[nH]c12 [Isopentenyladenine] | 1.81
CCN1CCN(c2cc3c(cc2F)c(=O)c(C(=O)O)cn3C2CC2)CC1 [Enrofloxacin] | 3.31
OCC1OCC(O)C(O)C1O (stereo unspecified) [1,5-Anhydrosorbitol] | 0.92
C=C(C)CN1CCC23c4c5ccc(O)c4OC2c2[nH]c4ccccc4c2CC3(O)C1C5 (stereo unspecified) | 2.93
Cc1nc2ccccn2c(=O)c1CCN1CCC(C(=O)c2ccc(F)cc2)CC1 [Pirenperone] | 3.5
CC12CC(=O)C3C(CCC4=CC(=O)CCC43C)C1CCC2=O (stereo unspecified) [Adrenosterone] | 1.1
NCCCCCN [Cadaverine] | 8.99
Nc1ccc(O)cc1 [4-Aminophenol] | 1.34
COCCCOc1ccnc(CS(=O)c2nc3ccccc3[nH]2)c1C (stereo unspecified) [Rabeprazole] | 2.44
CC(C(=O)O)c1ccc(CC2CCCC2=O)cc1 (stereo unspecified) [Loxoprofen] | 1.09
CC12CCC(=O)C=C1CCC1C2C(O)CC2(C)C(C(=O)CO)CCC12 (stereo unspecified) [Corticosterone] | 1.25
Cc1c2oc3c(C)ccc(C(=O)NC4C(=O)NC(C(C)C)C(=O)N5CCCC5C(=O)N(C)CC(=O)N(C)C(C(C)C)C(=O)OC4C)c3nc-2c(C(=O)NC2C(=O)NC(C(C)C)C(=O)N3CCCC3C(=O)N(C)CC(=O)N(C)C(C(C)C)C(=O)OC2C)c(N)c1=O (stereo unspecified) [Actinomycin D] | 1.03
O=P(O)(O)OCC1OC(OC2OC(CO)C(O)C(O)C2O)C(O)C(O)C1O (stereo unspecified) [Trehalose-6-phosphate] | 9.72

SMILES | LC retention time [min]
O=C(CCc1ccc(O)cc1)c1c(O)cc(O)cc1O [Phloretin] | 1.5
COc1cc(C)nc(-n2nc(C)cc2OC)n1 [Mepirizole] | 1.03
c1ccc2c(c1)Cc1ccccc1-2 [Fluorene] | 6.66
CCN(CC)CC1CCCCN1CC(=O)N1c2ccccc2C(=O)Nc2cccnc21 (stereo unspecified) [Otenzepad] | 2.94
CC(C)=CCN1CCC2(C)c3cc(O)ccc3CC1C2C (stereo unspecified) [Pentazocine] | 2.65
CC(=O)Nc1ccn(C2OC(CO)C(O)C2O)c(=O)n1 (stereo unspecified) [N-Acetylcytidine] | 5.08
CCN(CC)C(=O)C1(c2ccccc2)CC1CN (stereo unspecified) [Milnacipran] | 3.23
O=C(O)CNC(=O)OCc1ccccc1 [N-Benzyloxycarbonylglycine] | 7.67
COc1cc(C(=O)NC2CCCNC2)cc(OC)c1OC (stereo unspecified) [Troxipide] | 5.04
Nc1[nH]c(=O)ncc1CO [5-Hydroxymethylcytosine] | 6.9
COC1C=COC2(C)Oc3c(C)c(O)c4c(O)c(c5c(nc6cc(C)ccn65)c4c3C2=O)NC(=O)C(C)=CC=CC(C)C(O)C(C)C(O)C(C)C(OC(C)=O)C1C (stereo unspecified) [Rifaximin] | 1.18
COc1ccc(C(=O)NCc2ccc(OCCN(C)C)cc2)cc1OC [Itopride] | 3.65
NC(Cc1cccc(O)c1)C(=O)O (stereo unspecified) [3-Hydroxyphenylalanine] | 7.44
CCCCCC=CCC=CCCCCCCCC(=O)OC(CC(=O)[O-])C[N+](C)(C)C (stereo unspecified) [Linoleoylcarnitine] | 3.1
CC(C)=CCCC(C)=CC(=O)O [Geranic acid] | 1.3
C=COC(N)=O [Vinyl Carbamate] | 1.34
CNCCCC12CCC(c3ccccc31)c1ccccc12 [Maprotiline] | 2.66
CCCCCCCCCCCCCCCC(O)C(N)CO (stereo unspecified) [Dihydrosphingosine] | 4.47
O=C(O)CCCCC1SCC2NC(=O)NC21 (stereo unspecified) [Biotin] | 2.85
COc1c2ccoc2cc2oc(=O)ccc12 [5-Methoxypsoralen] | 1.07
Nc1ncnc2c1ncn2C1OC(CO)C(OP(=O)(O)O)C1O (stereo unspecified) [Adenosine-3-monophosphate] | 8.88
NC(CC(=O)O)C(=O)NC(Cc1ccccc1)C(=O)O (stereo unspecified) [Asp-Phe] | 8.14

SMILES | LC retention time [min]
CC(Cc1ccccc1)N(C)Cc1ccccc1 (stereo unspecified) [Benzphetamine] | 2.03
N=C1NC(=O)C(c2ccccc2)O1 (stereo unspecified) [Pemoline] | 1.39
CC(C)CC1NC(=O)C2CCCN2C1=O (stereo unspecified) [Cyclo(Leu-Pro)] | 1.29
CC(CCCCC(=O)Nc1ccc(C(F)(F)F)cc1)NCCc1cnc[nH]1 (stereo unspecified) [Histamine-trifluoromethyltoluide] | 5.3
Cc1cc(=O)oc2cc(O)ccc12 [4-Methylumbelliferone] | 1.22
CC(=O)N1C(=O)C(=O)c2ccccc21 [Acetylisatin] | 2.4
OCCN1CCN(CCCN2c3ccccc3Sc3ccc(C(F)(F)F)cc32)CC1 [Fluphenazine] | 2.74
NC(CCC(=O)O)C(=O)O (stereo unspecified) [Glutamic acid] | 8.85
CCC1(O)CC2CN(CCc3c([nH]c4ccccc34)C(C(=O)OC)(c3cc4c(cc3OC)N(C=O)C3C(O)(C(=O)OC)C(OC(C)=O)C5(CC)C=CCN6CCC43C65)C2)C1 (stereo unspecified) [Vincristine] | 3.7
CN(C)CCOc1ccc(C(=C(CCCl)c2ccccc2)c2ccccc2)cc1 [Toremifene] | 1.89
NC(CCSCC(N)C(=O)O)C(=O)O (stereo unspecified) [Cystathionine] | 9.91
CN1CC(=O)N2C(Cc3c([nH]c4ccccc34)C2c2ccc3c(c2)OCO3)C1=O (stereo unspecified) [Taldalafil] | 1.19
CNC(Cc1ccccc1)C(=O)O (stereo unspecified) [N-Methylphenylalanine] | 6.22
CCCCCCCCCCCC(=O)OC(CC(=O)[O-])C[N+](C)(C)C [Lauroyl-L-carnitine] | 3.63
COc1ccnc(CS(=O)c2nc3ccc(OC(F)F)cc3[nH]2)c1OC (stereo unspecified) [Pantoprazole] | 1.21
NCCCCC(N)C(=O)O (stereo unspecified) [Lysine] | 9.54
Cc1cc2nc3c(=O)[nH]c(=O)nc-3n(CC(O)C(O)C(O)CO)c2cc1C (stereo unspecified) [Riboflavin] | 6
Cc1[nH]cnc1CN1CCc2c(c3ccccc3n2C)C1=O [Alosetron] | 4.19
Cc1ccc(NC(=O)c2ccc(CN3CCN(C)CC3)cc2)cc1Nc1nccc(-c2cccnc2)n1 [Imatinib] | 5.36
O=P(O)(O)OCC1OC(O)C(O)C(O)C1O (stereo unspecified) [Glucose-6-phosphate] | 9.86
NC(CCCC(N)C(=O)O)C(=O)O (stereo unspecified) [2,6-Diaminopimelic acid] | 9.88
CC(=O)N[C@@H](CCC(N)=O)C(=O)O [N-Acetyl-L-glutamine] | 8.18

SMILES | LC retention time [min]
O=C(O)CCP(=O)(O)O [3-Phosphonopropionic acid] | 8.59
O=C(O)CNC(=O)c1ccco1 [N-(2-Furoyl)glycine] | 4.01
O=c1[nH]cnc2c1ncn2C1CCC(CO)O1 (stereo unspecified) [2',3'-Dideoxyinosine] | 3.44
Cn1c(=O)ccn(C2OC(CO)C(O)C2O)c1=O (stereo unspecified) [3-Methyluridine] | 1.12
Nc1nc2c(ncn2C2CC(O)C(CO)O2)c(=O)[nH]1 (stereo unspecified) [2'-Deoxyguanosine] | 6.4
CC(=O)OCC[C@H](N)C(=O)O [O-Acetyl-L-homoserine] | 7.6
CCOc1cc(CC(=O)NC(CC(C)C)c2ccccc2N2CCCCC2)ccc1C(=O)O (stereo unspecified) [Repaglinide] | 1.01
CC(C)OC(=O)CCCC=CCC1C(O)CC(O)C1CCC(O)CCc1ccccc1 (stereo unspecified) [Latanoprost] | 1.06
CCCCc1nc(Cl)c(CO)n1Cc1ccc(-c2ccccc2-c2nn[nH]n2)cc1 [Losartan] | 1.27
CNCCc1cnc[nH]1 [N-alpha-methylhistamine] | 7.48
COc1ccccc1N1CCN(CCCNc2cc(=O)n(C)c(=O)n2C)CC1 [Urapidil] | 4.58
NC(CS(=O)(=O)O)C(=O)O (stereo unspecified) [Cysteic acid] | 8.92
O=C(O)C=Cc1ccc(O)cc1 [p-Coumaric acid] | 1.38
CC(C)(CO)C(O)C(=O)NCCC(=O)O (stereo unspecified) [Pantothenic acid] | 3.5
C=C(OP(=O)(O)O)C(=O)O [Phosphoenolpyruvic acid] | 9.05
CN[C@@H](CCCCN)C(=O)O [N.alpha.-Methyl-L-lysine] | 7.35
NC(=O)c1ccc[n+](C2OC(CO)C(O)C2O)c1 (stereo unspecified) [Nicotinamide riboside cation] | 7.51
CCC(=O)OC(Cc1ccccc1)(c1ccccc1)C(C)CN(C)C (stereo unspecified) [Propoxyphene] | 2.01
O=C1CC(c2ccc(O)cc2)Oc2cc(O)ccc21 (stereo unspecified) [Liquiritigenin] | 1.3
CC(=O)NC1C(O)CC(O)(C(=O)O)OC1C(O)C(O)CO (stereo unspecified) [N-Acetylneuraminic acid] | 9.26
